{"source": "patent US20130331314A1", "about": "“PHARMACEUTICAL COMPOSITION FOR TREATING HCV INFECTIONS” (Hoffmann-La Roche Inc., priority 2010, published 2013)", "test": "Biopharmaceutical Classification System class", "assay_type": "physicochemical", "settings": "solubility and permeability limited oral absorption", "data": [{"smiles": "CC(C)(C)OC(=O)N[C@H]1CCCCC/C=C\\[C@@H]2C[C@@]2(C(=O)NS(=O)(=O)C2CC2)NC(=O)[C@@H]2C[C@@H](OC(=O)N3Cc4cccc(F)c4C3)CN2C1=O", "note": "[Compound I, 4-fluoro-1,3-dihydro-isoindole-2-carboxylic acid (Z)-(1S,4R,6S,14S, 18R)-14-tert-butoxycarbonylamino-4-cyclopropanesulfonylaminocarbonyl-2,15-dioxo-3,16-diaza-tricyclo[14.3.0.0^4,6]nonadec-7-en-18-yl ester]", "values": [{"measurement": "Biopharmaceutical Classification System class", "value": "Class 4"}]}]}
